The results in this text go back to publication PMC8347481, “Germacranolides from Carpesium divaricatum: Some New Data on Cytotoxic and Anti-Inflammatory Activity” (Molecules, 2021).

One may read the viability as the share of living cells, or the viability signal relative to a control. One may read the IC50 as the concentration needed to halve the response being measured.

Read-outs that look alike come from different tables or passages of the source.

One assay relates to Caco-2. The experiment in a line: LDH cell viability assay, colon cancer cells. Format: cell-based. As to conditions: Homo sapiens; for IC50: Caco-2, 24 h, LDH assay. How it is done: (§1) Normal prostate epithelial cells (PNT2), two prostate cancer cell lines (Du145 and PC3), human keratinocytes (HaCaT), two melanoma cell lines (A375 and HTB140) and two colon cancer cell lines (HT29 and Caco-2) were treated with 3 at a concentration range 1.0–50.0 µg/mL. Viability of the cells was estimated using lactate dehydrogenase (LDH) assay.
(§2) Cytotoxic activity of 3 was tested on human cancer and normal cells, grouped in three panels: prostate, skin and gastrointestinal. The prostate panel comprised prostate cancer cell lines DU145 (ATCC HTB-81) and PC3 (ATCC CRL-1435) and prostate normal epithelial cells PNT2 (ECACC 95012613). Melanoma cell lines A375 (ATCC CRL-1619) and HTB140 (ATCC Hs 294T) together with human keratinocytes HaCaT (obtained as a kind gift of Prof. Marta Michalik, Department of Cell Biology, Jagiellonian University) were included in the skin panel. Two colon cancer cell lines, namely Caco-2 (ATCC HTB-37) and HT29 (ATCC HTB-38), constituted the gastrointestinal panel. Du145 cells were grown in a modified Eagle’s medium with low (1.0 g/L) glucose concentration; HT29, PC3 and PNT-2 cells were grown in Dulbecco’s modified Eagle’s medium (DMEM) and F12 HAM Nutrient Mixture; Caco-2 cells were grown in modified Eagle’s medium with nonessential amino acids (NEAA); and melanoma cells and keratinocytes were maintained in modified Eagle’s medium with high (4.5 g/L) glucose concentration. The culture media contained antibiotics and 10% fetal bovine serum (FBS). All cultures were maintained at 37 °C in a humidified, 5% CO2-containing atmosphere.
(§3) The examined compound (3) was diluted in the culture media from freshly made stock solution in MeOH (10 mg/mL) to the working concentrations (from 0 to 50 μg/mL). Cell viability was determined as described previously. […] Then, the culture medium was replaced with the medium containing different concentrations of the assessed compound (1–50 μg/mL). After 24 h of incubation, the viability of the cells was determined using colorimetric lactate dehydrogenase (LDH) assay in comparison to the controls to which corresponding aliquots of MeOH diluted with culture media were added. Cells grown in the medium without the tested compound were used as control I (negative), and the positive control (control II) was obtained by incubation of the cells in the medium containing 1% Triton X-100. LDH released from the damaged cells into the cell culture medium was quantified by measuring the absorbance at 490 nm using a Synergy II Biotek microplate reader. Cytotoxicities of the examined compounds were calculated as follows: ((absorbance of the tested sample−absorbance of control I)/(absorbance of control II−absorbance of control I)) × 100. Results were means of three independent measurements (± SD). Doxorubicin (Ebewe Pharma G.m.b.H., Unterach, Austria) was used as a reference cytostatic drug.

In a further assay the test system is HT29. The assay can be described thus: LDH cell viability assay, colon cancer cells. Format: cell-based. As to conditions: Homo sapiens, HT-29; for IC50: HT29, 24 h, LDH assay. How it is done: as §1, §2, §3
Setting [1] is: value in parentheses, read-out: IC50 (IC50 µM) (converted).

As for `C=C1C(=O)O[C@H]2[C@H]1[C@@H](O)[C@H](OC(=O)CC(C)C)[C@H](C)CCC(=O)[C@](C)(O)[C@@H]2OC(=O)C(C)C` [Compound 3], the viability at 1 µg/mL came to 52.8 ± 1.62% with Caco-2 (Caco-2, 1 µg/mL, 24 h, read-out: Cell Viability (%) ± SD) and 69.3 ± 1.75% with HT29 (HT29, 1 µg/mL, 24 h, read-out: Cell Viability (%) ± SD). The viability at 3 µg/mL with Caco-2 (Caco-2, 3 µg/mL, 24 h, read-out: Cell Viability (%) ± SD) was found to be 38.6 ± 2.35%; with HT29 (HT29, 3 µg/mL, 24 h, read-out: Cell Viability (%) ± SD), 58 ± 1.66%. In addition, the viability at 5 µg/mL with Caco-2 (Caco-2, 5 µg/mL, 24 h, read-out: Cell Viability (%) ± SD) came out at 15.1 ± 2.91%; in the assay on HT29 (HT29, 5 µg/mL, 24 h, read-out: Cell Viability (%) ± SD), 49.2 ± 2%. The viability at 10 µg/mL with Caco-2 (Caco-2, 10 µg/mL, 24 h, read-out: Cell Viability (%) ± SD) is 1.96 ± 2.7%; in the assay with HT29 (HT29, 10 µg/mL, 24 h, read-out: Cell Viability (%) ± SD), 38 ± 2.29%. For the same compound, the viability at 20 µg/mL in the assay on Caco-2 (Caco-2, 20 µg/mL, 24 h, read-out: Cell Viability (%) ± SD) turned out to be 0.31 ± 0.43%; in the assay on HT29 (HT29, 20 µg/mL, 24 h, read-out: Cell Viability (%) ± SD), 24.4 ± 1.1%. The viability at 30 µg/mL with Caco-2 (Caco-2, 30 µg/mL, 24 h, read-out: Cell Viability (%) ± SD) came out at 0%; with HT29 (HT29, 30 µg/mL, 24 h, read-out: Cell Viability (%) ± SD) it was 10.4 ± 1.09%. The viability at 50 µg/mL with Caco-2 (Caco-2, 50 µg/mL, 24 h, read-out: Cell Viability (%) ± SD) is 0%; in the assay with HT29 (HT29, 50 µg/mL, 24 h, read-out: Cell Viability (%) ± SD), 0.79 ± 0.78%. The IC50 in the assay on Caco-2 (setting [1]) was 8.29 µM; in the assay on Caco-2 (read-out: IC50), 3.88 ± 0.1 µg/mL; with HT29 (setting [1]), 13.3 µM; with HT29 (read-out: IC50), 6.23 ± 0.89 µg/mL.
